The values below come from EP1656933A1, “A medicinal composition comprising L-alanine for non-alcoholic fatty liver disease and/or non-alcoholic steatohepatitis and use therof” (Ajinomoto Co., Inc., priority 2004, dated 2006).

Details of data set [1]: species or system Male GK rats. As to conditions: rat, in vivo. From the text: It has been supposed that the increase of the amount of fat intake in the last few decades is one of the causes of the recent increase of the number of patients with NASH. Therefore, the effect of L-alanine on the hepatic triglyceride contents in the high-fat diet (hereinafter HFD)-induced fatty liver rat model. Male GK rats (9 weeks of age, 6 rats per group) received HFD (containing 30% beef tallow) for 6 weeks.

Data set [2] relates to HFD-induced fatty liver rat model. The data set is described as follows: High-fat diet (HFD)-induced fatty liver rat model, hepatic triglyceride contents. Type of data set: in vivo, Male GK rats. Particulars: diet mixed with 4% L-alanine for 6 weeks; one rat of 6, in the level of SD group. The protocol: It has been supposed that the increase of the amount of fat intake in the last few decades is one of the causes of the recent increase of the number of patients with NASH. Therefore, the effect of L-alanine on the hepatic triglyceride contents in the high-fat diet (hereinafter HFD)-induced fatty liver rat model. Male GK rats (9 weeks of age, 6 rats per group) received HFD (containing 30% beef tallow) for 6 weeks. Triglyceride contents in the liver tissue was increased to 29.1 to 49.3 mg per gram of liver tissue, compared with those (14.1 to 24.2 mg) in the group fed with standard diet (containing 5% soy-been oil; hereinafter SD). Pioglitazone is a drug, which acts as an insulin-sensitizer for the patients with diabetes. Recent clinical pilot studies raise the possibility of clinical utility of pioglitazone for NASH. […] On the other hand, in the group of 6 rats received […] mixed with 4% L-alanine for 6 weeks, one rat is reduced in the liver triglyceride contents (19.6 mg) in the level of SD group. In addition, weight gain was reported as the main side effect in a pilot clinical study of piogritazone for NASH.

Data set [3] has as its system choline-deficient diet (hereinafter CDD) rat model. The data set is described as follows: Choline-deficient diet (CDD) rat model showing NASH-like pathological change in the liver. Type of data set: in vivo, Male Wistar rats. The text has this:
Male Wistar rats (7 weeks of age, 5 rats per group) received CDD (Dyets Co.) for 4 weeks. […] On the other hand, in the group of 5 rats received CDD mixed with 4% L-alanine for 4 weeks, one rat is normalized in liver weight (10.6g).

The structures appear in SMILES notation.

Turning to `CCc1ccc(CCOc2ccc(CC3SC(=O)NC3=O)cc2)nc1` (stereo not drawn) [pioglitazone, reference compound], the “Body Weight (g) Pre” value in data set [1] was 222.1 ± 9.9 g.
`C[C@H](N)C(=O)O` [L-alanine]: the liver triglyceride contents in data set [2] came to 19.6 mg. In data set [1], the “Body Weight (g) Post (at 6 weeks)” value stood at 331.8 ± 20.5 g and the “Body Weight (g) Pre” value stood at 219.8 ± 13.0 g. The compound also displayed a liver weight in data set [3] (CDD mixed with 4% L-alanine for 4 weeks, one rat of 5 (normalized), CDD alone 14.5 to 20.0 g) of 10.6 g. Besides, the “macrovesicular hepatic steatosis / histological fat accumulation in the liver” value in data set [3] (CDD mixed with drug for 4 weeks, histological examination, UDCA all of 5 rats, L-alanine the one rat of 5 with normalized liver weight) is given as “not recognized”.
